Legend:
[1] = test system: RIM tumour (rhabdomyo-sarcoma); experiment: In vivo evaluation of SPECT tracers in RIM tumour (rhabdomyo-sarcoma)-bearing rats; design: species or system rat
Source text: In the research that led to the invention two new potential SPECT tracers, 2-^123I-tyrosine (2-^123I-Tyr) and 2-^123-I-phenylalanine, were developed.

R1M tumour = experiment: PET of R1M tumour bearing rat after intravenous injection; type: in vivo; conditions: 120 Mbq intravenously, FIG. 2
Source text: FIG. 2: PET of R1M tumour bearing rat. The tumour is visible at the upper right, the pancreas in the middle and the bladder under. 120 Mbq L-2-^18F-methyl-phenylalanine was intravenously injected.
In Vivo Rat Evaluation of L-2-18F-methyl-phenylalanine in a R1M Tumour Bearing Rat by Means of PET
The latter is typical for rodent.

[2] = target: T1, L-transport system 1 (LAT1) (Rattus norvegicus, UniProt Q63016); experiment: Inhibition of L-3H-phenylalanine uptake in rat rhabdomyo-sarcoma (R1M) cells in vitro; type: cell-based
T1 construct: endogenous in cells; host or cells: R1M rat rhabdomyosarcoma cells
Protocol: FIG. 1: Inhibition of ^3H-Phe/Phe uptake in R1M cells in vitro by L-2-F-methyl-PHE. The common intercept proves that the inhibition is competitive and that L-2-F-methyl-Phe uses the same transport system as L-Phe.
The affinity of L-2-F-methyl-phenylalanine for uptake by the L-transport system 1 (LAT1) in cancer cells (rat rhabdomyo-sarcoma cells) was determined by measuring the inhibition of the uptake of L-^3H-phenylalanine after 15 minutes incubation in HEPES buffer of pH 7.4 containing appropriate amounts of L-phenylalanine and of L-2-F-methyl-phenylalanine. The uptake was saturable and followed the typical Michaelis-Menten relation allowing to draw Lineweaver-Burk (FIG. 1) plots.

R1M cells = experiment: Preliminary uptake experiments in R1M cells in vitro; type: cell-based; conditions: buffer simulating in vivo conditions
Source text: The inventors considered based on the results obtained with ^18F-FET and their own results with 2-^123I-Phe and 2-^123I-Tyr that the aromatic amino acid properties are conserved after substitution of an O-ethyl group and even in the presence of a voluminous iodine atom. This invention is thus based on the new approach to introduce an alkyl side chain on the phenyl ring to facilitate introduction of the radioactive atom. They thus provided an ^18F-alkyl-phenyl structure in phenylalanine and tyrosine, either ortho, meta or para. Examples are ^18F-CH[…] or ^18F-CH2-CH[…] and 2-^18F-CH[…] or 2-^18F-CH2-CH[…]. This reduces the labelling chemistry to direct conventional nucleophilic aliphatic substitution on the alkylphenylic side branch of the L-amino acid. In this approach cumbersome stereospecific synthesis is not required. The same strategy was followed for the radio-fluorination of the aliphatic amino acids leucine and isoleucine. […] Since aliphatic-substituted F hardly changes the pharmacology, it follows that these aliphatic amino acids are also suitable molecules for radio-fluorination.

T1 sequence (Q63016 whole entry): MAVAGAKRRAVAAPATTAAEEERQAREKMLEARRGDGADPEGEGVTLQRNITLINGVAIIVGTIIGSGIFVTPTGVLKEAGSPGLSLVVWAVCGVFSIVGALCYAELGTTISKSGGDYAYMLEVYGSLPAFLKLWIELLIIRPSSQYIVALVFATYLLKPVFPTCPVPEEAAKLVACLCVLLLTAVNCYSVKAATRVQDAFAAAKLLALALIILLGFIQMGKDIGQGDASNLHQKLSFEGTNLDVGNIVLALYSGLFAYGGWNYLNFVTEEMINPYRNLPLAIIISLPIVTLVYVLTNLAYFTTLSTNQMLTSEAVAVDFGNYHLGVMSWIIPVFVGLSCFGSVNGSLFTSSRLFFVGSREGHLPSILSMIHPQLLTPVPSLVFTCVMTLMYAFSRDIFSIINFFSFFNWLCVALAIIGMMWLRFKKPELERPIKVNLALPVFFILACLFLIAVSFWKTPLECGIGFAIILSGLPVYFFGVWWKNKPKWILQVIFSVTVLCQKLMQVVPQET
T1 sequence (Q794F9 whole entry partner): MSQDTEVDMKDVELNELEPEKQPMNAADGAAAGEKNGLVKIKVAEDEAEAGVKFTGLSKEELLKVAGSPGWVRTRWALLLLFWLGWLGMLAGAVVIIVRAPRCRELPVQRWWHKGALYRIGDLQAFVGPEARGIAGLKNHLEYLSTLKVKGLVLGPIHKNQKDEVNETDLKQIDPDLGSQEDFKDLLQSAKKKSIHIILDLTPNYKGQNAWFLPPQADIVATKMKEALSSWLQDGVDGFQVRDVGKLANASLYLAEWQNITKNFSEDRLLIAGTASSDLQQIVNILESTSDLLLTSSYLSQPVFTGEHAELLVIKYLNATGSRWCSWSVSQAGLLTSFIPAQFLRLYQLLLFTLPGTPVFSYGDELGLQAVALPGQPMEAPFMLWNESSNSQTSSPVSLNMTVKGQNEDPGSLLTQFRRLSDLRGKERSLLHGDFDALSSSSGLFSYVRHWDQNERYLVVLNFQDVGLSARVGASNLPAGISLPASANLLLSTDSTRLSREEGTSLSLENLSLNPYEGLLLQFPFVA

N[C@@H](Cc1ccccc1[123I])C(=O)O [2-^123-I-phenylalanine]
activity in the kidneys relative to IMT ([1]; rat, in vivo): 10 times less | high brain uptake observed ([1]; rat, in vivo): no | renal accumulation ([1]; rat, in vivo): no renal accumulation | uptake in the tumours ([1]; rat, in vivo): high uptake

N[C@@H](Cc1ccc(O)cc1[123I])C(=O)O [2-^123I-tyrosine]
activity in the kidneys relative to IMT ([1]; RIM tumour-bearing rats): 10 times less | high brain uptake observed ([1]; RIM tumour-bearing rats): no | renal accumulation ([1]; RIM tumour-bearing rats): no renal accumulation | uptake in the tumours ([1]; RIM tumour-bearing rats, comparable with IMT): high uptake

N[C@@H](Cc1ccccc1C[18F])C(=O)O [L-2-18F-methyl-phenylalanine]
accumulation in the kidneys or other organs (PET) (R1M tumour): No accumulation | route of clearance (PET) (R1M tumour): cleared through the kidneys to the bladder | uptake in the tumour and pancreas (PET) (R1M tumour): high uptake

N[C@@H](Cc1ccccc1CF)C(=O)O [L-2-F-methyl-phenylalanine]
Ki ([2]; 15 minutes incubation, HEPES buffer pH 7.4, rat rhabdomyo-sarcoma cells): 76 µM | type of inhibition of 3H-Phe/Phe uptake (Lineweaver-Burk plots) ([2]; R1M cells in vitro, FIG. 1): competitive

N[C@@H](Cc1ccccc1)C(=O)O [L-phenylalanine]
Km ([2]; same conditions: 15 minutes incubation, HEPES buffer pH 7.4, rat rhabdomyo-sarcoma cells): 65 µM

CC(C)C[C@H](N)C(=O)O [^3H-leucine]
uptake in R1M cells (R1M cells): comparable with 3H-Tyr and ^3H-Phe

^3H-isoleucine
uptake in R1M cells (R1M cells): comparable with 3H-Tyr and ^3H-Phe

— patent publication US7189383B2, “Radioactively labelled amino acid analogues, their preparation and use” (Mallinckrodt Inc., priority 2002, dated 2007)
